Test results published in patent publication US20240299559A1, “COMPOUNDS THAT MEDIATE PROTEIN DEGRADATION AND METHODS OF USE THEREOF” (Monte Rosa Therapeutics, Inc., priority 2021, published 2024).
pKi: −log10 of the molar value.

Legend:
CDK2 = biological target: T1, CDK2 (Homo sapiens, UniProt P24941); experiment: CDK2 HiBiT assay (degradation, Dmax); assay type: cell-based; conditions: HEK293 clonal lines with CRISPR KI HiBiT tag on CDK2, stably expressing LgBiT; 24 hours incubation
T1 construct: HEK293 clonal lines with CRISPR KI HiBiT tag on CDK2 proteins; host or cells: HEK293 clonal line with CRISPR knock-in HiBiT on CDK2, stably expressing LgBiT
Description: HEK293 clonal lines with CRISPR KI HiBiT tag on CDK2 proteins and stably expressing LgBiT protein were obtained from Promega (Madison, WI). Cells were plated at 5000 cells per well using Multiflo (BioTek) in 384-well white solid bottom plates (Corning, 3570BC) in 25 ul volume in DMEM media (DMEM, high glucose, HEPES, no phenol red (ThermoFisher Scientific, 21063029)) containing 10% FBS (Corning, 35-075-CV), 1% Penicillin/Streptomycin (ThermoFisher Scientific, 15140-122). Cells were incubated for 16 hours at 37° C., 5% CO2. 75 nL of a compound at 30 μM were dosed into the plate using an Echo® 650 liquid handler (Labcyte). Cells were incubated at 37° C., 5% CO2 for 24 hours. 5 ul of HiBiT Lysis Reagent (Promega, N3030) is added using Combi Multidrop (ThermoFisher Scientific), plates are incubated for 15′ at 37° C., 5% CO2 and then signal was read on a Pherastar FSX using “LUM plus” optic module.
Analysis was performed in Scinamic (Scinamic, Cambridge, MA). Luminescence response (R) was calculated by the formula: response=100*(S−N)/(P−N) where S is the signal of the well, N and P the mean negative and positive control values respectively of the same plate. The luminescence response was then fitted in Scinamic using a 3-parameter agonist logistic fit (hillslope=1, EC50>0, top/bottom unconstrained).

CRBN-DDB1 = CRBN-DDB1 (Homo sapiens, UniProt Q96SW2); experiment: Compound binding to CRBN by HTRF assay; conditions: CRBN-DDB1 2.5 nM, Cy5-Thalidomide 100 nM probe; Ki from geometric mean of IC50 by Cheng-Prustoff transformation
Description: Compound activity was monitored in a Homogenous Time-Resolved Fluorescence (HTRF) assay using 1-[5-({2-[2-(2-{[2-(2,6-dioxopiperidin-3-yl)-1,3-dioxo-2,3-dihydro-1H-isoindol-4-yl]oxy}acetamido)ethoxy]ethyl}carbamoyl)pentyl]-3,3-dimethyl-2-[(1E,3E)-5-[(2E)-1,3,3-trimethyl-5-sulfo-2,3-dihydro-1H-indol-2-ylidene]penta-1,3-dien-1-yl]-3H-indol-1-ium-5-sulfonate as a fluorescent probe. Biochemical assays were conducted in Greiner white 384 well HiBase plates (Cat. No 784075-25) in 10 μL total volume. A one pot detection solution of CRBN-DDB1 (2.5 nM), Anti-His Terbium Cryptate Gold (1×, PerkinElmer Cat. #: 61HI2TLB), and Cy5-Thalidomide (100 nM, Tenova Cat.: T52461) was prepared in 20 mM HEPES, 20 mM NaCl, 0.2 mM TCEP, 0.2 mM EDTA, and 0.005% Tween20 was dispensed to each assay plate. Compounds were stored in dry, ambient temperatures at 10 mM. A 10-point, 1:3 dilution series was prepared from 10 mM stock concentrations in Echo-compatible LDV plates. 10 nL of each compound dilution series was dispensed into assays wells using an Echo 650 (Labcyte inc. USA). 10 nL of 10 mM Lenalidomide was transferred into the active-control wells for the assay and 10 nL of DMSO was transferred into the neutral-control wells. The assay was then allowed to incubate for 30 min at ambient temperature after transferring compound. Plate measurements were taken on a Pherastar FSX (BMG Labtech, Germany) using the HTRF Red filter (Ex. 337 nm, em1:620 nm, em2:665 nm) (Flashes: 50, Integration time: 60-400 us, Z-height: 10 mm, Ratio-multipler: 10,000). The HTRF signal was then subsequently normalized to the neutral and active controls. Analysis and IC50 values were derived using KNIME analytics (KNIME Zurich) transformation and fitting within Collaborative Drug Discovery (Collaborative Drug Discovery USA). Ki was derived from the geometric mean of the IC50 values using the Cheng-Prustoff transformation.

CRBN-DDB1, sequence (Q96SW2 whole entry): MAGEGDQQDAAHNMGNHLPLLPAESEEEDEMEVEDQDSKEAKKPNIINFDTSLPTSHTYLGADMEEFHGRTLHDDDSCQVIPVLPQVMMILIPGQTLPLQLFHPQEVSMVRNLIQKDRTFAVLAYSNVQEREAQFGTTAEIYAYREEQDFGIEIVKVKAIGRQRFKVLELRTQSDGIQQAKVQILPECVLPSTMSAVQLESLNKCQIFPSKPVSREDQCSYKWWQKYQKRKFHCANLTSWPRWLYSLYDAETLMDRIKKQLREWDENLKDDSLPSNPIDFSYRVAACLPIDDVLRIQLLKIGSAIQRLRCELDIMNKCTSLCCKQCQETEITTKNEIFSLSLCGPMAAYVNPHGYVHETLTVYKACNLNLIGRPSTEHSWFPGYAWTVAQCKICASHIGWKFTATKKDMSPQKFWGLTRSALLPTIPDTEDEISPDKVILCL
CRBN-DDB1, sequence (Q16531 whole entry partner): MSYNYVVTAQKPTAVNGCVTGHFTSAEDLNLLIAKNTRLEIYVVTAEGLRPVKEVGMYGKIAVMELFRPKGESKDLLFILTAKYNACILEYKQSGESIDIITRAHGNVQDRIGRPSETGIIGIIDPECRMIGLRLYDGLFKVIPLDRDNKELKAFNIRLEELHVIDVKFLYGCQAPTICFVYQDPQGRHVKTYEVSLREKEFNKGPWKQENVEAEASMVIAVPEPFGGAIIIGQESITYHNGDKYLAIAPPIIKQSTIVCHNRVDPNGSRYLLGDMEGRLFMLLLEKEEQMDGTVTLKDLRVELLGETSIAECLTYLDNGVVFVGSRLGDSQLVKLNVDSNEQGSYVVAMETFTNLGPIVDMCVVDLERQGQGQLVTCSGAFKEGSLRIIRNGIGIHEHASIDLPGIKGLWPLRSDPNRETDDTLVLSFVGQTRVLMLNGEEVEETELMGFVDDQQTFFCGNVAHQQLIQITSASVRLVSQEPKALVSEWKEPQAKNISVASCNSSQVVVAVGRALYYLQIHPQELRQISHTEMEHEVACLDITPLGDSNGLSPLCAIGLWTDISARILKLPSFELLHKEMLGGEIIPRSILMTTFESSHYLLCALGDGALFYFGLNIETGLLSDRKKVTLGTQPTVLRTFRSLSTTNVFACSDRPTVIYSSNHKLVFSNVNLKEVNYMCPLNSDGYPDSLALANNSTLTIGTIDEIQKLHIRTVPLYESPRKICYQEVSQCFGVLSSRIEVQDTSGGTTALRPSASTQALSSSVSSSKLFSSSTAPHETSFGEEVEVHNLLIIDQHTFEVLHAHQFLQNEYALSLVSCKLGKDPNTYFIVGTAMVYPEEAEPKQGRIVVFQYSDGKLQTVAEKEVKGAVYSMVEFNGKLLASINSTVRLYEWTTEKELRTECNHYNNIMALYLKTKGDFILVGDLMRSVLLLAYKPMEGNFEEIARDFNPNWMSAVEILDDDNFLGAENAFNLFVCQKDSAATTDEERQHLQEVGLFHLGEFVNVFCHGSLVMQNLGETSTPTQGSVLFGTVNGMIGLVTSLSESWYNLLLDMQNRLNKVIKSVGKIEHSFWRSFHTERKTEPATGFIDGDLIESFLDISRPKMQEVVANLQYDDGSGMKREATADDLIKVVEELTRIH

Dmax (CDK2) [%] | pKi (CRBN-DDB1) | SMILES
10 to 50 | 6.00 to 7.00 | O=C1CCC(N2Cc3ccc(CCNC(=O)OCc4ccc(OC5CCOCC5)nc4)cc3C2=O)C(=O)N1 (stereo not shown) [Compound 1, (6-((tetrahydro-2H-pyran-4-yl)oxy)pyridin-3-yl)methyl (2-(2-(2,6-dioxopiperidin-3-yl)-3-oxoisoindolin-5-yl)ethyl)carbamate]
10 to 50 | 6.00 to 7.00 | O=C1CCC(N2Cc3ccc(CNC(=O)OCc4ccc(OC5CCOCC5)cc4)cc3C2=O)C(=O)N1 (stereo not shown) [Compound 3, 4-((tetrahydro-2H-pyran-4-yl)oxy)benzyl((2-(2,6-dioxopiperidin-3-yl)-3-oxoisoindolin-5-yl)methyl)carbamate]
10 to 50 | ≥ 7.00 | O=C1CCC(N2Cc3ccc(CNC(=O)OCc4cccc(-c5ccccc5)c4)cc3C2=O)C(=O)N1 (stereo not shown) [Compound 6, [1,1′-biphenyl]-3-ylmethyl ((2-(2,6-dioxopiperidin-3-yl)-3-oxoisoindolin-5-yl)methyl)carbamate]
10 to 50 | 6.00 to 7.00 | Cc1ccc(-c2cccc(COC(=O)NCc3ccc4c(c3)C(=O)N(C3CCC(=O)NC3=O)C4)c2)cc1 (stereo not shown) [Compound 7, (4′-methyl-[1,1′-biphenyl]-3-yl)methyl ((2-(2,6-dioxopiperidin-3-yl)-3-oxoisoindolin-5-yl)methyl)carbamate]
10 to 50 | 6.00 to 7.00 | O=C1CCC(N2Cc3ccc(CNC(=O)OCc4cccc(-c5ccc(Cl)cc5)c4)cc3C2=O)C(=O)N1 (stereo not shown) [Compound 8, (4′-chloro-[1,1′-biphenyl]-3-yl)methyl ((2-(2,6-dioxopiperidin-3-yl)-3-oxoisoindolin-5-yl)methyl)carbamate]
50 to 80 | 6.00 to 7.00 | O=C1CCC(N2Cc3ccc(CNC(=O)OCc4cccc(-c5cccc(F)c5)c4)cc3C2=O)C(=O)N1 (stereo not shown) [Compound 10, (3′-fluoro-[1,1′-biphenyl]-3-yl)methyl ((2-(2,6-dioxopiperidin-3-yl)-3-oxoisoindolin-5-yl)methyl)carbamate]
50 to 80 | 6.00 to 7.00 | O=C1CCC(N2Cc3ccc(CNC(=O)OCc4cccc(-c5cccc(C(F)(F)F)c5)c4)cc3C2=O)C(=O)N1 (stereo not shown) [Compound 11, (3′-(trifluoromethyl)-[1,1′-biphenyl]-3-yl)methyl ((2-(2,6-dioxopiperidin-3-yl)-3-oxoisoindolin-5-yl)methyl)carbamate]
50 to 80 | ≥ 7.00 | Cc1c(COC(=O)NCc2ccc3c(c2)C(=O)N(C2CCC(=O)NC2=O)C3)cccc1-c1ccccc1 (stereo not shown) [Compound 12, (2-methyl-[1,1′-biphenyl]-3-yl)methyl ((2-(2,6-dioxopiperidin-3-yl)-3-oxoisoindolin-5-yl)methyl)carbamate]
10 to 50 | ≥ 7.00 | O=C1CCC(N2Cc3ccc(CNC(=O)OCc4cncc(-c5ccccc5)c4)cc3C2=O)C(=O)N1 (stereo not shown) [Compound 13, (5-phenylpyridin-3-yl)methyl ((2-(2,6-dioxopiperidin-3-yl)-3-oxoisoindolin-5-yl)methyl)carbamate]
10 to 50 | 6.00 to 7.00 | O=C1CCC(N2Cc3ccc(CNC(=O)OCc4cc(-c5ccccc5)ccn4)cc3C2=O)C(=O)N1 (stereo not shown) [Compound 14, (4-phenylpyridin-2-yl)methyl ((2-(2,6-dioxopiperidin-3-yl)-3-oxoisoindolin-5-yl)methyl)carbamate]
10 to 50 | ≥ 7.00 | O=C1CCC(N2Cc3ccc(CNC(=O)OCc4cccc(-c5cccnc5)c4)cc3C2=O)C(=O)N1 (stereo not shown) [Compound 15, 3-(pyridin-3-yl)benzyl ((2-(2,6-dioxopiperidin-3-yl)-3-oxoisoindolin-5-yl)methyl)carbamate]
10 to 50 | 6.00 to 7.00 | CC(NC(=O)OCc1ccc(OC2CCOCC2)nc1)c1ccc2c(c1)C(=O)N(C1CCC(=O)NC1=O)C2 (stereo not shown) [Compound 16, (6-((tetrahydro-2H-pyran-4-yl)oxy)pyridin-3-yl)methyl (1-(2-(2,6-dioxopiperidin-3-yl)-3-oxoisoindolin-5-yl)ethyl)carbamate]
10 to 50 | 6.00 to 7.00 | O=C1CCC(N2Cc3ccc(CNC(=O)OCc4ccc(N5CCCC5=O)cc4)cc3C2=O)C(=O)N1 (stereo not shown) [Compound 17, 4-(2-oxopyrrolidin-1-yl)benzyl ((2-(2,6-dioxopiperidin-3-yl)-3-oxoisoindolin-5-yl)methyl)carbamate]
10 to 50 | 6.00 to 7.00 | O=C1CCC(N2Cc3ccc(CNC(=O)OCc4ccc(C5CCCO5)cc4)cc3C2=O)C(=O)N1 (stereo not shown) [Compound 18]
10 to 50 | 6.00 to 7.00 | O=C1CCC(N2Cc3ccc(CNC(=O)OCc4ccc([C@H]5CCC[C@@H]5O)cc4)cc3C2=O)C(=O)N1 (stereo partly drawn) [Compound 19, 4-((1R, 2S)-2-hydroxycyclopentyl) benzyl ((2-(2,6-dioxopiperidin-3-yl)-3-oxoisoindolin-5-yl)methyl)carbamate]
10 to 50 | 6.00 to 7.00 | O=C1CCC(N2Cc3ccc(CNC(=O)OCc4ccccc4)cc3C2=O)C(=O)N1 (stereo not shown) [Compound 20, benzyl ((2-(2,6-dioxopiperidin-3-yl)-3-oxoisoindolin-5-yl)methyl)carbamate]
≤ 10 | ≥ 7.00 | O=C(CCc1cccc(-c2ccc(F)cc2)c1)NCc1ccc2c(c1)C(=O)N(C1CCC(=O)NC1=O)C2 (stereo not shown) [Compound 21, N-((2-(2,6-dioxopiperidin-3-yl)-3-oxoisoindolin-5-yl)methyl)-3-(4′-fluoro-[1,1′-biphenyl]-3-yl)propanamide]
10 to 50 | ≥ 7.00 | O=C1CCC(N2Cc3ccc(CNC(=O)OCCc4ccccc4)cc3C2=O)C(=O)N1 (stereo not shown) [Compound 22, 2-phenylethyl N-{[2-(2,6-dioxopiperidin-3-yl)-3-oxo-2,3-dihydro-1H-isoindol-5-yl]methyl}carbamate]
10 to 50 | 6.00 to 7.00 | O=C1CCC(N2Cc3ccc(CNC(=O)OCCCc4ccccc4)cc3C2=O)C(=O)N1 (stereo not shown) [Compound 23, 3-phenylpropyl N-{[2-(2,6-dioxopiperidin-3-yl)-3-oxo-2,3-dihydro-1H-isoindol-5-yl]methyl}carbamate]

SMILES | Dmax (CDK2) [%] | pKi (CRBN-DDB1)
O=C1CCC(N2Cc3ccc(COC(=O)NCc4ccc(OC5CCOCC5)nc4)cc3C2=O)C(=O)N1 (stereo not shown) [Compound 2, (2-(2,6-dioxopiperidin-3-yl)-3-oxoisoindolin-5-yl)methyl((6-((tetrahydro-2H-pyran-4-yl)oxy)pyridin-3-yl)methyl)carbamate] | 10 to 50 | 6.00 to 7.00
O=C1CCC(N2Cc3ccc(CNC(=O)OCc4cccc(-c5ccc(F)cc5)n4)cc3C2=O)C(=O)N1 (stereo not shown) [Compound 4, (6-(4-fluorophenyl)pyridin-2-yl)methyl((2-(2,6-dioxopiperidin-3-yl)-3-oxoisoindolin-5-yl)methyl)carbamate] | 10 to 50 | 6.00 to 7.00
O=C1CCC(N2Cc3ccc(CNC(=O)OCc4ccnc(-c5ccc(F)cc5)c4)cc3C2=O)C(=O)N1 (stereo not shown) [Compound 5, (2-(4-fluorophenyl)pyridin-4-yl)methyl((2-(2,6-dioxopiperidin-3-yl)-3-oxoisoindolin-5-yl)methyl)carbamate] | 10 to 50 | 6.00 to 7.00
O=C1CCC(N2Cc3ccc(CNC(=O)OCc4cccc(-c5ccc(C(F)(F)F)cc5)c4)cc3C2=O)C(=O)N1 (stereo not shown) [Compound 9, (4′-(trifluoromethyl)-[1,1′-biphenyl]-3-yl)methyl((2-(2,6-dioxopiperidin-3-yl)-3-oxoisoindolin-5-yl)methyl)carbamate] | 50 to 80 | 6.00 to 7.00
